Test results published in patent US7868013B2, “Cycloalkyl substituted pyrimidinediamine compounds and their uses” (Rigel Pharmaceuticals, Inc., priority 2004, dated 2011).
Counter-ions that a name gives are not always drawn.

Legend:
[1] = test system: A549 (lung carcinoma); test: In vitro antiproliferation assay, A549 cells (TABLE 1 6 point assay; TABLE 2); type: cell-based; conditions: Homo sapiens, A549, A549 cells; 6 point assay; read-out: A549, 6pt (IC50, inhibition of proliferation)
Description: (§1) Certain compounds were tested against other cell types for their ability to inhibit proliferation in standard antiproliferation assays.

[2] = test system: H1299 (non-small cell lung carcinoma); test: In vitro antiproliferation assay, H1299 cells (TABLE 1 6 point assay; TABLE 2); type: cell-based; conditions: Homo sapiens, NCI-H1299, H1299 cells; 6 point assay; read-out: H1299, 6pt (IC50, inhibition of proliferation)
Description: as §1

| Structure (SMILES) | IC50 [1] | IC50 [2] |
| --- | --- | --- |
| CN(C)CCN1CCc2cc(Nc3ncc(F)c(N[C@@H]4[C@H](C(N)=O)[C@H]5C=C[C@@H]4C5)n3)ccc21 (racemic) [compound 160, Racemic-(2-exo,3-exo)-N4-[3-aminocarbonylbicyclo[2.2.1]hept-5-en-2-yl)-N2-[1-(2-dimethylaminoethyl)-2,3-dihydroindol-5-yl]-5-fluoro-2,4-pyrimidinediamine] | 100 to 1000 nM | ≤ 100 nM |
| Cn1ccc2cc(Nc3ncc(F)c(NC4C5C=CC(C5)C4C(N)=O)n3)ccc21 (racemic) [compound 161, Racemic-(2-exo,3-exo)-N4-[3-aminocarbonylbicyclo[2.2.1]hept-5-ene-2-yl)-5-fluoro-N2-(1-methylindol-5-yl)-2,4-pyrimidinediamine] | 100 to 1000 nM | 100 to 1000 nM |
| Cc1cc(Nc2ncc(F)c(NC3C4C=CC(C4)C3C(=O)NC(C)C)n2)ccc1N1CCN(C)CC1 (racemic) [compound 162] | ≤ 100 nM | ≤ 100 nM |
| CN(C)CCn1ccc2ccc(Nc3ncc(F)c(NC4C5C=CC(C5)C4C(N)=O)n3)cc21 (racemic) [compound 163, Racemic-(2-exo,3-exo)-N4-[3-aminocarbonylbicyclo[2.2.1]hept-5-en-2-yl)-N2-[1-(2-dimethylaminoethyl)indol-6-yl]-5-fluoro-2,4-pyrimidinediamine] | 100 to 1000 nM | 100 to 1000 nM |
| Cc1cc(Nc2ncc(F)c(NC3C4C=CC(C4)C3C(=O)NC3CC3)n2)ccc1N1CCN(C)CC1 (racemic) [compound 164, Racemic-(2-exo,3-exo)-N4-[3-(N-cyclopropyl)aminocarbonylbicyclo[2.2.1]hept-5-en-2-yl)-5-fluoro-N2-[3-methyl-4-(4-methylpiperazin-1-yl)phenyl]-2,4-pyrimidinediamine] | ≤ 100 nM | ≤ 100 nM |
| Cc1cc(Nc2ncc(F)c(NC3C4C=CC(C4)C3C(=O)NC3CCC3)n2)ccc1N1CCN(C)CC1 (racemic) [compound 165, Racemic-(2-exo,3-exo)-N4-[3-(N-cyclobutyl)aminocarbonylbicyclo[2.2.1]hept-5-en-2-yl]-5-fluoro-N2-[3-methyl-4-(4-methylpiperazin-1-yl)phenyl]-2,4-pyrimidinediamine] | ≤ 100 nM | ≤ 100 nM |
| CNC(=O)C1C2C=CC(C2)C1Nc1nc(Nc2ccc(N3CCN(C)CC3)c(C)c2)ncc1F (racemic) [compound 166, Racemic-(2-exo,3-exo)-N4-[3-(N-methyl)aminocarbonylbicyclo[2.2.1]hept-5-en-2-yl)-5-fluoro-N2-[3-methyl-4-(4-methylpiperazin-1-yl)phenyl]-2,4-pyrimidinediamine] | ≤ 100 nM | ≤ 100 nM |
| CCNC(=O)C1C2C=CC(C2)C1Nc1nc(Nc2ccc(N3CCN(C)CC3)c(C)c2)ncc1F (racemic) [compound 167, Racemic-(2-exo,3-exo)-N4-[3-(N-ethyl)aminocarbonylbicyclo[2.2.1]hept-5-en-2-yl]-5-fluoro-N2-[3-methyl-4-(4-methylpiperazin-1-yl)phenyl]-2,4-pyrimidinediamine] | ≤ 100 nM | ≤ 100 nM |
| CCCNC(=O)C1C2C=CC(C2)C1Nc1nc(Nc2ccc(N3CCN(C)CC3)c(C)c2)ncc1F (racemic) [compound 168, Racemic-(2-exo,3-exo)-5-fluoro-N2-[4-(4-methylpiperazin-1-yl)-3-methylphenyl]-N4-[3-(N-n-propyl)aminocarbonylbicyclo[2.2.1]hept-5-en-2-yl]-2,4-pyrimidinediamine] | ≤ 100 nM | ≤ 100 nM |
| CN(C)CCn1ccc2ccc(Nc3ncc(F)c(NC4C5C=CC(C5)C4C(=O)NC4CC4)n3)cc21 (racemic) [compound 169, Racemic-(2-exo,3-exo)-N4-[3-cyclopropylaminocarbonylbicyclo[2.2.1]hept-5-en-2-yl)-N2-[1-(2-dimethylaminoethyl)indol-6-yl]-5-fluoro-2,4-pyrimidinediamine] | ≤ 100 nM | 100 to 1000 nM |
| CN(C)CCN1CCc2cc(Nc3ncc(F)c(NC4C5C=CC(C5)C4C(=O)NC4CC4)n3)ccc21 (racemic) [compound 170, Racemic-(2-exo,3-exo)-N4-[3-cyclopropylaminocarbonylbicyclo[2.2.1]hept-5-en-2-yl)-N2-[1-(2-dimethylaminoethyl)-2,3-dihydroindol-5-yl]-5-fluoro-2,4-pyrimidinediamine] | ≤ 100 nM | ≤ 100 nM |
| CN(C)CCN1CCc2cc(Nc3ncc(F)c(NC4C5C=CC(C5)C4C(N)=O)n3)ccc21 (racemic) [compound 171, Racemic-(2-exo, 3-exo)-N4-(3-aminocarbonylbicyclo[2.2.1]hept-5-en-2-yl)-5-fluoro-N2-[N-(2-dimethylaminoethyl)-2,3-dihydro-indol-5-yl]-2,4-pyrimidinediamine Bis Hydrogen Chloride Salt] | 100 to 1000 nM | 100 to 1000 nM |
| CN1CCc2cc(Nc3ncc(F)c(NC4C5C=CC(C5)C4C(N)=O)n3)ccc21 (racemic) [compound 174, Racemic-(2-exo,3-exo)-N4-[3-aminocarbonylbicyclo[2.2.1]hept-5-en-2-yl)-5-fluoro-N2-(1-methy-2,3-dihydrolindol-5-yl)-2,4-pyrimidinediamine] | 100 to 1000 nM | 100 to 1000 nM |
| CN(C)CCn1ccc2cc(Nc3ncc(F)c(NC4C5C=CC(C5)C4C(=O)NC4CC4)n3)ccc21 (racemic) [compound 175, Racemic-(2-exo,3-exo)-N4-[3-cyclopropylaminocarbonylbicyclo[2.2.1]hept-5-en-2-yl)-N2-[1-(2-dimethylaminoethyl)indol-5-yl]-5-fluoro-2,4-pyrimidinediamine] | ≤ 100 nM | ≤ 100 nM |
| CN(C)CCN1CCc2cc(Nc3ncc(F)c(NC4C5C=CC(C5)C4C(=O)NC4CCC4)n3)ccc21 (racemic) [compound 176, Racemic-(2-exo,3-exo)-N4-[3-cyclobutylaminocarbonylbicyclo[2.2.1]hept-5-en-2-yl)-N2-[1-(2-dimethylaminoethyl)-2,3-dihydroindol-5-yl]-5-fluoro-2,4-pyrimidinediamine] | ≤ 100 nM | ≤ 100 nM |
| CNC(=O)C1C2C=CC(C2)C1Nc1nc(Nc2ccc3c(c2)CCN3CCN(C)C)ncc1F (racemic) [compound 177, Racemic-(2-exo,3-exo)-N2-[1-(2-dimethylaminoethyl)-2,3-dihydroindol-5-yl]-5-fluoro-N4-[3-N-methylaminocarbonylbicyclo[2.2.1]hept-5-ene-2-yl]-2,4-pyrimidinediamine] | ≤ 100 nM | 100 to 1000 nM |
| CN(C)CCN1CCc2cc(Nc3ncc(F)c(NC4C5CCC(C5)C4C(=O)NC4CC4)n3)ccc21 (racemic) [compound 178, Racemic-(2-exo,3-exo)-N4-[3-cyclopropylaminocarbonylbicyclo[2.2.1]hept-2-yl)-N2-[1-(2-dimethylaminoethyl)-2,3-dihydro-indol-5-yl]-5-fluoro-2,4-pyrimidinediamine] | ≤ 100 nM | ≤ 100 nM |
| CN(C)CCn1ccc2ccc(Nc3ncc(F)c(NC4C5CCC(C5)C4C(=O)NC4CC4)n3)cc21 (racemic) [compound 179, Racemic-(2-exo,3-exo)-N4-[3-cyclopropylaminocarbonylbicyclo[2.2.1]hept-2-yl)-N2-[1-(2-dimethylaminoethyl)indol-6-yl]-5-fluoro-2,4-pyrimidinediamine] | 100 to 1000 nM | 100 to 1000 nM |
| CS(=O)(=O)N1CCc2cc(Nc3ncc(F)c(NC4C5CCC(C5)C4C(=O)NC4CC4)n3)ccc21 (racemic) [compound 180, Racemic-(2-exo,3-exo)-N4-[3-cyclopropylaminocarbonylbicyclo[2.2.1]hept-2-yl)-5-fluoro-N2-[1-methylsulfonyl-2,3-dihydro-indol-5-yl]-2,4-pyrimidinediamine] | ≤ 100 nM | ≤ 100 nM |
| CNC(=O)C1C2C=CC(C2)C1Nc1nc(Nc2ccc3c(c2)CCN3S(C)(=O)=O)ncc1F (racemic) [compound 181, Racemic-(2-exo,3-exo)-5-fluoro-N4-[3-methylaminocarbonylbicyclo[2.2.1]hept-5-en-2-yl)-N2-[1-methylsulfonyl-2,3-dihydroindol-5-yl]-2,4-pyrimidinediamine] | ≤ 100 nM | ≤ 100 nM |
| CCNC(=O)C1C2C=CC(C2)C1Nc1nc(Nc2ccc3c(c2)CCN3S(C)(=O)=O)ncc1F (racemic) [compound 182, Racemic-(2-exo,3-exo)-N4-[3-ethylaminocarbonylbicyclo[2.2.1]hept-5-en-2-yl)-5-fluoro-N2-[1-methylsulfonyl-2,3-dihydro-indol-5-yl]-2,4-pyrimidinediamine] | ≤ 100 nM | ≤ 100 nM |
| CNC(=O)C1C2C=CC(C2)C1Nc1nc(Nc2ccc3c(ccn3CCN(C)C)c2)ncc1F (racemic) [compound 183, Racemic-(2-exo,3-exo)-N2-[1-(2-dimethylaminoethyl)indol-5-yl]-5-fluoro-N4-[3-methylaminocarbonylbicyclo[2.2.1]hept-5-en-2-yl)-2,4-pyrimidinediamine] | ≤ 100 nM | ≤ 100 nM |
| CCNC(=O)C1C2C=CC(C2)C1Nc1nc(Nc2ccc3c(c2)OCCN3CCN(C)C)ncc1F (racemic) [compound 184, Racemic-(2-exo,3-exo)-N4-[3-N-ethylminocarbonylbicyclo[2.2.1]hept-5-en-2-yl)-5-fluoro-N2-{1-[2-(dimethylamino)ethyl]-3,4-dihydro-4H-benz[1,4]oxazin-6-yl}-2,4-pyrimidinediamine] | ≤ 100 nM | ≤ 100 nM |
